Patent publication US8563738B2, “Ligands for copper-catalyzed azide-alkyne cycloaddition reactions” (The Scripps Research Institute, priority 2007, dated 2013)

Assays:
[1] = Second-order rate constants of CuAAC reaction by LC-MS of quenched aliquots; conditions: for relative catalytic rate (second-order specific activity): ligand:Cu 2:1, 0.1 mM Cu, 1-2 mM substrates, 4:1 DMSO:aqueous buffer, sodium ascorbate
Procedure: The relative effectiveness of Cu-ligand complexes was evaluated on the reaction between phenylacetylene and benzyl azide in 4:1 DMSO:aqueous buffer containing sodium ascorbate as reducing agent, which has served as the standard reaction in previous mechanistic studies (Rodionov, V. O.; et al. Angew. Chem. Int. Ed. 2005, 44, 2210-2215). Ligand:Cu ratios are used herein to describe the amounts of each component added, and designate mixtures of ligands and copper ions according to those ratios for convenience. However, it must be emphasized that the active catalysts are not necessarily composed of those same ratios of ligand and metal as are placed in the reaction vessel. The equilibria that govern the composition of these catalysts are discussed below, and their study will be the subject of a separate publication.
Absolute rates were determined under relatively dilute conditions (1-2 mM in substrates), which were required to slow the reactions enough so that aliquots could be reliably taken over a substantial fraction of the completion curve. Each aliquot was immediately quenched and the amount of product formed monitored by quantitative LC-MS against an internal standard. In this way, the clean conversion to triazole was verified in each case, information that is not available by following the disappearance of azide or alkyne by infrared spectroscopy. Plots of product concentrations vs. time fitted very well to second-order kinetics over at least 70% of the reaction (FIG. 2A). […] For this reason, comparisons were made between second-order specific activities (rate constants determined at a standard Cu concentration of 0.1 mM) for catalysts composed of 2:1 mixtures of ligands and Cu(I), in the presence of excess ascorbate relative to Cu.
Reagent stock solutions were freshly prepared before use. In a typical experiment, reactions were set up in the first column of a deep-well polypropylene microtiter plate (2.5 mL well volume). 100 μL of 30% H2O2 and 100 μL of ethanol were dispensed into all other wells.
The reactions were started by the addition of the final component (typically CuSO4 solution). Aliquots of 100 μL were taken at 1-5 minute intervals from the reaction wells with a multichannel pipetman, and transferred to the subsequent columns of wells for quenching. After the desired number of aliquots have been quenched in this fashion, the contents of the plate were transferred to a standard polystyrene 96-well plate for analysis.
LC-MS analysis was performed on an Agilent 1100 (G1946D) instrument, equipped with a 35 mm Agilent ZORBAX® 3.5μ or 1.8μ SB-C18 column. The elution solvent for the detection of 1-benzyl-4-phenyl-1,2,3-triazole was 55:45 H2O:CH3CN, with 0.5% TFA. Analysis of the other triazole products required a solvent gradient (typically from 50:50 to 25:75 H2O:CH3CN, 0.5% TFA over the course of 4-5 minutes). Detection was performed in single ion mode (SIM), which typically allowed for quantitative triazole detection down to 0.1 μM. 1-benzyl-4-phenyl-1,2,3-triazole-d7 was used as internal reference for all experiments.
Equations (2) and (3) were used to find the value of k (kobs) that gives the best fit curve to the experimental data of [P] vs. time.
FIG. 2 summarizes the rate data. Note that the rate constants obtained here are really specific activities at 0.10 mM Cu catalyst concentration. Very similar results were obtained at pH 8 in the presence of 180 mM vs. 10 mM HEPES buffer.
FIG. 2B. Conditions: 1 mM BnN3, 2 mM PhCCH, 0.1 mM CuSO4, 0.2 mM ligand, 4:1 DMSO:HEPES (180 mM), 25 mM NaAsc; pH verified with meter after ascorbate addition. The dots mark observed data points; the solid line is the best second-order fit; an initial “burst” of catalytic activity was not counted in the reported rate constants. Experimental error in rate constants upon repeat measurement is <15% (usually ca. 10%), except where noted.
FIG. 2C. […]

[2] = Ligand screening by reaction calorimetry (peak reaction power); conditions: high reactant concentrations, 1% Cu, 4:1 DMSO:aqueous, 65° C.
Source text: Reaction calorimetry was used to evaluate the relative merits of various ligands under practical conditions of organic synthesis, e.g., involving high concentrations of azide and alkyne reagents and low loadings of catalyst. After correction for instrumental heat transfer parameters, thermograms provide a direct real-time measure of reaction rate (power output); integration gives the overall time-vs.-completion curve. […] All such measurements were made in the same 4:1 DMSO:aqueous solvent as before, but at 65° C. rather than room temperature, in order to keep the product triazole in solution at the higher concentrations used.
Calorimetry was performed in an Omnical INSIGHT® 10-channel reaction calorimeter using 40 mL glass vials. In a typical run all the reaction components but one were introduced into the vials inside an inert atmosphere glovebox, and vials were sealed with septum caps. The last reaction component to be added was placed in a Hamilton gastight syringe. The vials and syringes were then allowed to equilibrate inside the preheated instrument (65° C.) for 30 minutes. The reaction was started in all vials by depressing all of the syringes simultaneously. Two vials out of ten were charged only with solvent to obtain readings allowing for compensation for the heat of mixing. The thermograms registered in these two channels upon addition of the last component were used to construct the baseline for the other 8 channels.
Since heat is not transferred to the instrument sensor instantaneously, the thermogram registered by the instrument is dependent on the characteristics of the instrument and reaction vessel. Correction for these extraneous factors must be applied to the recorded thermograms to obtain instrument-independent data (Rosner, T.; et al. J. Am. Chem. Soc. 2001, 123, 1848-1855; Liu, J.-S.; et al. Thermochimica Acta 1994, 236, 113-122). The appropriate dynamic correction function is built into the instrument operating software. Use of vendor supplied software produces the same result as manual correction.
By the same token, catalysts such as Cu.1 that give observable, but not very strong, calorimetry signals cannot be fully analyzed by converting thermograms to completion curves, because a significant amount of the total energy output is lost below the detection threshold of the instrument. TBTA (1) falls into this category, classified as “moderate” ligands. […] However, peak power values (i.e., maximum reaction rate) provided a reproducible relative measure of relative catalytic efficiency.
Ligands were screened under the following conditions: 250 mM benzyl azide, 454 mM phenylacetylene, 2 mM CuSO4, 4 mM ligand, 25 mM sodium ascorbate. Phenylacetylene was the last component added. Initial screening was performed with at least two independent trials for each ligand. Candidates showing promising activity were then examined with at least three independent trials to obtain reliable estimations of experimental error.

CC(C)(C)OC(=O)Cn1c(CN(Cc2nc3ccccc3n2CC(=O)OC(C)(C)C)Cc2nc3ccccc3n2CC(=O)OC(C)(C)C)nc2ccccc21 [(BimC1E′)3]
relative catalytic rate (second-order specific activity) [1]: performing as well as the parent structure (BimH)3

Cn1ccn(-c2cccc(-n3ccn(C)[c]3=[Cu][Cl])n2)[c]1=[Cu][Cl] [Ligand S3, reference compound]
relative catalytic activity by calorimetry [2]: in the range of TBTA (1)

c1ccc2[nH]c(CNCc3nc4ccccc4[nH]3)nc2c1 [H(BimH)2, Bis-(2-benzimidazolylmethyl)amine, reference compound]
relative catalytic rate (second-order specific activity) [1]: slower than those observed for the “ligand-free” case

O=C([O-])CCCCn1c(CN(Cc2nc3ccccc3n2CCCCC(=O)[O-])Cc2nc3ccccc3n2CCCCC(=O)[O-])nc2ccccc21.[K+].[K+].[K+] [(BimC4A)3, Potassium 5,5′,5″-(2,2′,2″-nitrilotris(methylene)tris(1H-benzimidazole-2,1-diyl))tripentanoate]
relative catalytic rate (second-order specific activity) [1]: noticeably better catalyst performance
relative catalytic rate (second-order specific activity) ([1]; listed as (BimC4A)): strong rate acceleration through a wide pH range
relative catalytic activity by calorimetry [2]: best in the class

Cc1cc(C)c(-n2ccn(-c3c(C)cc(C)cc3C)[c]2=[Cu][Cl])c(C)c1 [Ligand S1, reference compound]
relative catalytic activity by calorimetry [2]: no detectable exothermic heat flow

O=S(=O)(O)c1ccc2[nH]c(CN(Cc3nc4cc(S(=O)(=O)O)ccc4[nH]3)Cc3nc4cc(S(=O)(=O)O)ccc4[nH]3)nc2c1 [(BimH/S)3, reference compound]
relative catalytic rate (second-order specific activity) [1]: strong rate acceleration through a wide pH range

O=C([O-])CCCn1c(CN(Cc2nc3ccccc3n2CCCC(=O)[O-])Cc2nc3ccccc3n2CCCC(=O)[O-])nc2ccccc21.[K+].[K+].[K+] [(BimC3A)3]
relative catalytic rate (second-order specific activity) [1]: noticeably better catalyst performance
relative catalytic activity by calorimetry [2]: best in the class

CCOC(=O)Cn1c(CN(Cc2nc3ccccc3n2CC(=O)OCC)Cc2nc3ccccc3n2CC(=O)OCC)nc2ccccc21 [(BimC1E)3, Triethyl 2,2′,2″-(2,2′,2″-nitrilotris(methylene)tris(1H-benzimidazole-2,1-diyl)) triethanoate]
relative catalytic rate (second-order specific activity) [1]: performing as well as the parent structure (BimH)3

c1ccc2[nH]c(CN(Cc3nc4ccccc4[nH]3)Cc3nc4ccccc4s3)nc2c1 [(Bth)(BimH)2, N,N-bis((1H-benzimidazol-2-yl)methyl)-1-(benzothiazol-2-yl)methanamine]
relative catalytic activity by calorimetry [2]: largely inactive

CCOC(=O)CCCCn1c(CN(Cc2nc3ccccc3n2CCCCC(=O)OCC)Cc2nc3ccccc3n2CCCCC(=O)OCC)nc2ccccc21 [(BimC4E)3, Triethyl 5,5′,5″-(2,2′,2″-nitrilotris(methylene)tris(1H-benzimidazole-2,1-diyl))tripentanoate]
relative catalytic rate (second-order specific activity) [1]: just as active as its hydrolyzed (carboxylate) analog

c1ccc(CN(Cc2ccccn2)Cc2ccccn2)nc1 [(Py)3, tris(pyridylmethyl)amine, reference compound]
relative catalytic rate (second-order specific activity) [1]: slower than those observed for the “ligand-free” case
relative catalytic activity by calorimetry [2]: one of the best ligands in calorimetry screening

O=C([O-])CCCCCn1c(CN(Cc2nc3ccccc3n2CCCCCC(=O)[O-])Cc2nc3ccccc3n2CCCCCC(=O)[O-])nc2ccccc21.[K+].[K+].[K+] [(BimC5A)3]
relative catalytic rate (second-order specific activity) [1]: noticeably better catalyst performance
relative catalytic activity by calorimetry [2]: best in the class

c1ccc2[nH]c(CN(Cc3nc4ccccc4s3)Cc3nc4ccccc4s3)nc2c1 [(Bth)2(BimH), N-((1H-benzimidazol-2-yl)methyl)-1-(benzothiazol-2-yl)-N-(benzothiazol-2-ylmethyl)methanamine]
effect of HEPES buffer on rate ([1]; 180 mM HEPES): faster turnover
relative catalytic rate (second-order specific activity) [1]: best ligand in the series
change in rate with pH ([1]; pH of the aqueous component raised from 7 to 8): very little change in rate
relative catalytic activity by calorimetry [2]: largely inactive
